The values that follow come from patent US20210393857A1, “SMALL MOLECULE DRUGS AND METHODS TO ACCELERATE OSSEOINTEGRATION” (The Regents of the University of California, priority 2018, published 2021).

Where a name gives a salt, the structure may show the parent alone. Marks after values point to notes of the source that are not given here.

Experiment [1] has as its system I1 imidazoline receptor. Particulars: comparison within marsanidine, 7-Me-, 7-Cl-, 7-F-marsanidine; cited from earlier work.
Experiment [2] deals with α2-adrenoreceptors. The conditions noted are these: comparison within marsanidine, 7-Me-, 7-Cl-, 7-F-marsanidine; cited from earlier work.
The subject of experiment [3] is Npas2-LacZ expression of mouse BMSC. Briefly: High throughput screening of LOPAC 1280 compounds for Npas2-LacZ expression (Beta-Glo β-galactosidase assay). It is filed as cell-based. The conditions noted are these: compound 1 μM, 48 hours, BMSC from Npas2−/− mice carrying LacZ reporter. Here is the method:
Femur BMSC harvested from Npas2−/− mice were previously characterized for LacZ expression, which was used in this study for high throughput, unbiased screening of Library of Pharmacologically Active Compounds (LOPAC®^1280). (Hassan, N., et al., (2017) PLoS One 12, e0183359). Using 384-well plates, each well was filled with 25 μl non-phenol red DMEM containing 10% FBS and 1% PS, and added 50 nL of LOPAC®^1280 compound (final concentration: 1 μM) using 500 nL pin tool (Biomek FX, Beckman Coulter, Indianapolis, Ind.). To each well, BMSC (Npas2-LacZ) were placed as 1500 cells/25 μl suspension and incubated at room temperature for 1 hour, followed by incubation at 37° C. and 5% CO2 for 48 hours. To measure Npas2-LacZ expression, β-galactosidase activity was measured using a commercially available assay (Beta-Glo Assay System, Promega, Summerville, Calif.).
The Npas2-LacZ expression data were uploaded on an online data analysis tool (CDD Vault, Collaborative Drug Discovery, Inc, Burlingame, Calif.), on which data were normalized and Z-factor was calculated. For this study, hit compounds were selected as Z-score >2.5 or <−2.5.

Experiment [4] concerns adenosine A1 and A2 receptors. Particulars: selectivity A1 over A2; cited from earlier work.
The test system of experiment [5] is implant osseointegration in mouse femur. As to the kind of experiment: Implant push-out test of Ti implants placed in mouse femur. Particulars: 75 mg/Kg daily IP for 2 weeks, machined or B-DAE-DCD surface implants, vs vehicle 0.9% NaCl. It is filed as in vivo. An excerpt:
Male 10˜15-wk-old C57Bl/6J mice underwent surgical placement of Ti implants. After anesthesia with isoflurane inhalation, the distal femur was accessed via medial parapatellar arthrotomy with lateral displacement of the quadriceps-patellar complex. After locating the femoral intercondylar notch, the femoral intramedullary canal was manually reamed with a 25-gauge needle for entry into the canal and further reamed with a 23-gauge needle. A Ti implant was inserted in a retrograde fashion into each femur of a mouse. The Ti implant was clipped at 4 mm and further inserted 4 mm using a periodontal probe. The quadriceps-patellar complex was reduced to its anatomic position, and the surgical site was closed using Vicryl 5-0 sutures. Carprofen (5.0 mg/kg) (Rimadyl, Zoetis US, Parsippany, N.J.) was administered subcutaneously at the time of surgery and every 24 hours for 2 days after surgery.
Mice were euthanized and femur bones were harvested at the predetermined healing time. […] The mechanical withholding strength was measured by pushing the implant out from the femur bone marrow using a custom-made stainless-steel pushing rod mounted on a 1000-N load cell (Instron, Canton, Mass.). The axial load on the implant was applied at a cross-head speed of 1 mm/min, and displacement of the implant and the load were recorded. […]

For `Fc1cccc2cnn(N=C3NCCN3)c12` [7-F-marsanidine], the “affinity for the I1 imidazoline receptor (rank among marsanidine analogs)” value in experiment [1] is given as “higher affinity for the I1 imidazoline receptor than 7-Cl-marsanidine”. Further, in experiment [2], the “affinity for α2-adrenoreceptors (rank among marsanidine analogs)” value is recorded as “comparable affinity for α2-adrenoreceptors”. For `Cn1c(=O)c2[nH]c(-c3ccc(S(=O)(=O)O)cc3)nc2n(C)c1=O` [8-(p-Sulfophenyl)-theophylline, 8-(p-sulfophenyl) theophylline], the “% Activity (activity against negative controls in LOPAC 1280 screening)” value (“% Activity” below) in experiment [3] was 104.0%. On the same count and under the same terms, the result for `O=C1CCc2cc(OCCCCc3nnnn3C3CCCCC3)ccc2N1` [Cilostazol (MS-1505230), 6-[4-(1-cyclohexyl-1H-tetrazol-5-yl)-butoxy]-3,4-dihydro-2(1H)-quinolinone] reads 26.2%.

As to `CCCn1c(=O)c2[nH]c(-c3ccc(Cl)cc3N)nc2n(CCC)c1=O` [8-(2-amino-4-chlorophenyl)-1,3-dipropylxanthine], in experiment [4], the “fold more potent at A1 receptors than at A2 receptors” value was about 400 fold. Take `c1ccc2c(c1)cnn2N=C1NCCN1` [marsanidine]: the “affinity for the I1 imidazoline receptor (rank among marsanidine analogs)” value in experiment [1] is “lowest affinity for the I1 imidazoline receptor”. In experiment [2], the “affinity for α2-adrenoreceptors (rank among marsanidine analogs)” value is recorded as “highest affinity for α2-adrenoreceptors”. `Clc1cccc2cnn(N=C3NCCN3)c12` [7-Cl-marsanidine]: the “affinity for the I1 imidazoline receptor (rank among marsanidine analogs)” value in experiment [1] is “lower affinity for the I1 imidazoline receptor”. In addition, in experiment [2], the “affinity for α2-adrenoreceptors (rank among marsanidine analogs)” value is “higher affinity for α2-adrenoreceptors”.

In the case of `Cc1nccc2c1[nH]c1ccccc12` [Harmane (MS-1500866), 1-Methyl-9H-pyrido[3,4-b]indole], in experiment [3], the “% Activity” value was −15.6** %. As for `Cc1cccc2cnn(N=C3NCCN3)c12` [7-Me-marsanidine], in experiment [1], the “affinity for the I1 imidazoline receptor (rank among marsanidine analogs)” value is reported as “highest affinity for the I1 imidazoline receptor”. Moreover, the “affinity for α2-adrenoreceptors (rank among marsanidine analogs)” value in experiment [2] was “low affinity for α2-adrenoreceptors”. With `CC[C@@H](CO)NC(=O)[C@@H]1C=C2c3cccc4c3c(cn4C)C[C@H]2N(C)C1` [Methysergide maleate, 1-methyl-D-lysergic acid butanolamide], the “% Activity” value in experiment [3] worked out at 28.6%. For `CCCn1c(=O)c2[nH]c(-c3ccccc3)nc2n(CCC)c1=O` [1,3-dipropyl-8-phenylxanthine], the “fold more potent at A1 receptors than at A2 receptors” value in experiment [4] is “about 23 fold”. Regarding `O=c1ccc2c(OCCCCc3ccccc3)c3ccoc3cc2o1` [Psora-4, 5-(4-phenylbutoxy)psoralen], the “% Activity” value in experiment [3] amounted to 35.3%. For `C[C@](N)(Cc1ccc(O)c(O)c1)C(=O)O` [Methyldopa (L, −), L-α-Methyl-3,4-dihydroxyphenylalanine], the implant push-out value entry in experiment [5] was “greater push-out value than vehicle treated control mice”. For the same molecule, the “% Activity” value in experiment [3] stood at 18.1%.
